Data: ChEMBL document CHEMBL6120962, “New Mitochondria-Targeted Fisetin Derivative Compromises Mitophagy and Limits Survival of Drug-Induced Senescent Breast Cancer Cells” (J Med Chem, 2024)
The source made the active and inactive calls.

Key:
[1] = test system: Mitochondrial membrane; test: Induction of mitochondrial membrane potential depolarization in human HCC1500 cells at 1 uM incubated for 24 hrs by 7-AAD staining based flow cytometric analysis; type: cell membranes
[2] = target: T1, Mixed lineage kinase domain-like protein (Homo sapiens) (UniProt Q8NB16); test: Induction of MLKL phosphorylation in human HCC1428 cells at 1 to 5 uM incubated for 24 hrs by Western blot analysis; type: cell-based; details: dose 1-5 µM
T1 sequence (whole entry): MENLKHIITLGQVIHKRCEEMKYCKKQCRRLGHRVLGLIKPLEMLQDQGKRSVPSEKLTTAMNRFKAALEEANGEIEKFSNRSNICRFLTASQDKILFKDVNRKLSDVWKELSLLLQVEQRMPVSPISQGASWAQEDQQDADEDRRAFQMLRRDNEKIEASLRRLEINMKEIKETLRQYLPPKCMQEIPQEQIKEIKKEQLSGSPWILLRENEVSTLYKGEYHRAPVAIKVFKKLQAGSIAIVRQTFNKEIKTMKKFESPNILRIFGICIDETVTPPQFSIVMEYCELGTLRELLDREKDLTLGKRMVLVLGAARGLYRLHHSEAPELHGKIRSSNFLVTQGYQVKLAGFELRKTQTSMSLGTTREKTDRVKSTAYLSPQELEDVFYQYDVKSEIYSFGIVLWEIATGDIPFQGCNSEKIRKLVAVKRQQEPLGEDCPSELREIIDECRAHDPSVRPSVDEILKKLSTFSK

[3] = test system: MCF7; test: Antitumor activity against ER-positive human MCF7 cells xenografted in Danio rerio embryo assessed as decrease in tumor size at 1 to 5 uM administered for 48 hrs by imaging analysis; type: functional, cell-based; details: dose 1-5 µM
[4] = target: RAC-alpha serine/threonine-protein kinase (Homo sapiens) (UniProt P31749); test: Binding affinity to recombinant human AKT (14 to 276 residues) assessed as interaction by measuring decrease in chemiluminescence signal at 0.01 to 5 uM incubated overnight by dot-blot analysis; details: dose 0.01-5 µM
Chain of RAC-alpha serine/threonine-protein kinase (Homo sapiens) (P31749 whole entry, the tested form may be a part): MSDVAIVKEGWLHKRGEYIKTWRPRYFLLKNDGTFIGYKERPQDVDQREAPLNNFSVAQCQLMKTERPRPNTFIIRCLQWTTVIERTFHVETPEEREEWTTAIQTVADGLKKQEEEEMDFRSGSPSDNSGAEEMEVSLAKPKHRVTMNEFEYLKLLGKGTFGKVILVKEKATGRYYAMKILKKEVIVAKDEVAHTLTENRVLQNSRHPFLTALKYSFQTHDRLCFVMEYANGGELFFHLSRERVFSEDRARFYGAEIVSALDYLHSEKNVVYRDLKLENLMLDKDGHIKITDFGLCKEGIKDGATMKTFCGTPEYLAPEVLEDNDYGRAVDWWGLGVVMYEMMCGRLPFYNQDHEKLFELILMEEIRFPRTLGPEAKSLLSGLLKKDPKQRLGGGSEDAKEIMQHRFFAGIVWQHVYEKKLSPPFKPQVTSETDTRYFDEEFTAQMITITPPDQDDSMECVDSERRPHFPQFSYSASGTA

[5] = test system: Mitochondrial membrane; test: Induction of mitochondrial membrane potential depolarization in human CAMA-1 cells at 1 uM incubated for 24 hrs by 7-AAD staining based flow cytometric analysis; type: cell membranes
[6] = test system: Mitochondrial membrane; test: Induction of mitochondrial membrane potential depolarization in human ZR-75-30 cells assessed as increase in fraction of depolarized dead cells at 5 uM incubated for 24 hrs by 7-AAD staining based flow cytometric analysis; type: cell membranes
[7] = test system: HCC1428; test: Induction of apoptosis in human HCC1428 cells assessed as decrease in AKT level at 1 to 5 uM incubated for 24 hrs by Western blotting analysis; type: functional, cell-based; details: dose 1-5 µM
[8] = test system: Mitochondrial membrane; test: Induction of mitochondrial membrane potential depolarization in human ZR-75-30 cells at 1 uM incubated for 24 hrs by 7-AAD staining based flow cytometric analysis; type: cell membranes
[9] = test system: CAMA-1; test: Induction of apoptosis in tamoxifen-induced senescent human CAMA-1 cells assessed as phosphatidylserine externalization at 1 to 5 uM incubated for 24 hrs by Annexin V-FITC staining based flow cytometric analysis; type: functional, cell-based; details: dose 1-5 µM
[10] = test system: MCF-10F; test: Induction of mitochondrial dysfunction in human MCF-10F cells assessed as decrease in ATP production at 5 uM incubated for 6 hrs by real time analysis; type: functional, cell-based
[11] = test system: HCC1428; test: Induction of oxidative stress in tamoxifen-induced senescent human HCC1428 cells assessed as increase in mitochondrial superoxide production at 1 to 5 uM incubated for 24 hrs by MitoSOX red superoxide indicator based fluorescence analysis; type: functional, cell-based; details: dose 1-5 µM
[12] = test system: ZR-75-30; test: Effect on IL-8 level in human ZR-75-30 cells at 5 uM incubated for 24 hrs by immunostaining based imaging cytometric analysis; type: functional, cell-based
[13] = test system: ZR-75-30; test: Anticancer activity against ER-positive human ZR-75-30 cells assessed as effect on metabolic activity upto 10 uM incubated for 24 hrs by MTT assay; type: functional, cell-based
[14] = test system: HCC1428; test: Anticancer activity against ER-positive human HCC1428 cells assessed as effect on metabolic activity upto 10 uM incubated for 24 hrs by MTT assay; type: functional, cell-based
[15] = test system: MCF-10F; test: Induction of mitochondrial dysfunction in tamoxifen-induced senescent human MCF-10F cells assessed as decrease in spare respiratory capacity at 5 uM incubated for 6 hrs by real-time analysis; type: functional, cell-based
[16] = test system: HCC1428; test: Induction of mitochondrial dysfunction in human HCC1428 cells assessed as decrease in ATP production at 5 uM incubated for 6 hrs by real time analysis; type: functional, cell-based
[17] = test system: HCC1428; test: Induction of apoptosis in tamoxifen-induced senescent human HCC1428 cells assessed as decrease in phosphorylated AKT level at 1 to 5 uM incubated for 24 hrs by Western blotting analysis; type: functional, cell-based; details: dose 1-5 µM
[18] = test system: CAMA-1; test: Induction of apoptosis in human CAMA-1 cells assessed as phosphatidylserine externalization at 1 to 5 uM incubated for 24 hrs by Annexin V-FITC staining based flow cytometric analysis; type: functional, cell-based; details: dose 1-5 µM
[19] = test system: Mitochondrial membrane; test: Induction of mitochondrial membrane potential depolarization in human HCC1428 cells at 1 uM incubated for 24 hrs by 7-AAD staining based flow cytometric analysis; type: cell membranes
[20] = test system: HCC1428; test: Induction of mitochondrial dysfunction in human HCC1428 cells assessed as increase in proton leak at 5 uM incubated for 6 hrs by real time analysis; type: functional, cell-based
[21] = test system: HCC1428; test: Induction of ubiquitin-independent mitophagy in tamoxifen-induced senescent human HCC1428 cells assessed as increase in BNIP3 level at 1 to 5 uM by immunostaining based imaging cytometric analysis; type: functional, cell-based; details: dose 1-5 µM
[22] = test system: Mitochondrial membrane; test: Induction of mitochondrial membrane potential depolarization in human MCF-10F cells at 5 uM incubated for 24 hrs by 7-AAD staining based flow cytometric analysis; type: cell membranes
[23] = target: T2, Receptor-interacting serine/threonine-protein kinase 1 (Homo sapiens) (UniProt Q13546); test: Induction of RIP1 phosphorylation in human HCC1428 cells at 1 to 5 uM incubated for 24 hrs by Western blot analysis; type: cell-based; details: dose 1-5 µM
T2 sequence (whole entry): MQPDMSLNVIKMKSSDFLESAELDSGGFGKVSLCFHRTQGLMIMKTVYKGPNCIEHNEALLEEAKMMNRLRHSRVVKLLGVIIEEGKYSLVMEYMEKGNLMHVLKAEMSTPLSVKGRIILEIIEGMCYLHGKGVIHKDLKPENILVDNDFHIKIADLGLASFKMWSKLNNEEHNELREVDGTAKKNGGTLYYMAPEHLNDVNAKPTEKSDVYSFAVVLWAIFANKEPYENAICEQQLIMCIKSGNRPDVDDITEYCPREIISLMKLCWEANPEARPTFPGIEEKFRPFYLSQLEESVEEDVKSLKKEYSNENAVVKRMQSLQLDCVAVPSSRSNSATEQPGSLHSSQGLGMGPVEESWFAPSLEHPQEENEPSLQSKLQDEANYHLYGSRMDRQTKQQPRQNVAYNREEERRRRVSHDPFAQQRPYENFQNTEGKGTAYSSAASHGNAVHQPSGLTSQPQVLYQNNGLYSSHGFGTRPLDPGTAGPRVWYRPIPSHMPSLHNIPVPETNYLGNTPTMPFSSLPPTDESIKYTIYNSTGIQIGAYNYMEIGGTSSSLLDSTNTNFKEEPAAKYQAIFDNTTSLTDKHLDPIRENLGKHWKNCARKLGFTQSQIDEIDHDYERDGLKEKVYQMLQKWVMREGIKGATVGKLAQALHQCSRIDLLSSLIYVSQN

Measured: Activity

CC(=O)Oc1ccc2c(=O)c(OCCCC[P+](c3ccccc3)(c3ccccc3)c3ccccc3)c(-c3ccc4c(c3)OC(c3ccccc3)(c3ccccc3)O4)oc2c1.[I-]
inactive: [2] | [10] | [12] | [15] | [21] | [22] | [23]
active: [1] | [3] | [4] | [5] | [6] | [7] | [8] | [9] | [11] | [13] | [14] | [16] | [17] | [18] | [19] | [20]
